This note sets out measurements from patent US12622912B2, “Application of pyrido[1,2-a]pyrimidinone analog” (GUANGZHOU JOYO PHARMATECH CO., LTD, priority 2021, dated 2026).

What is called T/C is the result in the treated group divided by that in the control group, in per cent.

In test [1] the test system is C-33A PIK3CA-mutated cervical cancer cell line. Briefly: CTG cell proliferation, C-33A. It is filed as cell-based. Conditions: Homo sapiens, 72 hours, read-out: Absolute IC50. From the text: (§1) (2) Reagents • 1) FBS (fetal bovine serum) (purchased from ExCell, product number: FND500); • 2) RPMI1640 medium (purchased from Hyclone, product number: SH30809.01); • 3) McCoy's 5A medium (purchased from Gibco, product number: 12330-031); • 4) MEM medium (purchased from Hyclone, product number: SH30024.01; • 5) MEM NEAA (purchased from Gibco, product number: 11140-050); • 6) Sodium pyruvate (purchased from Gibco). (3) Test Article and Positive Control Article • Test article: compound I; Positive Control Article: • 1) Alpelisib, molecular weight: 441.47; solvent: DMSO; storage condition after dissolution: −20° C.; supplier: Shanghai TOPSCIENCE Biochemical Technology Co., Ltd., CAS number: 1217486-61-7; • 2) Cisplatin, molecular weight: 300.05; solvent: PBS (phosphate buffer saline); storage condition: 2-8° C.; supplier: Qilu Pharmaceutical. (4) The CTG Method was Used to Determine the Cell Proliferation IC50 of the Compound
(§2) Step 1: Cells in exponential growth phase were harvested, and viable cells were counted with a Vi-Cell XR cytometer. The cell suspension was adjusted to an appropriate concentration with medium. 90 μL of cell suspension was added to each well of a 96-well cell culture plate, and the final cell concentration was 1500-6000 cells/well. […]
(§3) Step 3: After 72 hours of drug treatment, 50 μL (½ culture volume) CTG solution that was melted and equilibrated to room temperature was added to each well according to the CTG operation instruction. […] After 10 minutes, the fluorescence signal value was measured with an Envision2104 plate reader.
(§4) Cell survival rate was calculated using the formula: Vsample/Vvehicle control×100%. Where, Vsample was the reading of the drug treatment group, and Vvehicle control was the average value of the solvent control group. GraphPad Prism 5.0 software was used, and a S-type dosage-survival rate curve was drawn using a nonlinear regression model and IC50 value was calculated.

Test [2] has as its system PIK3CA-mutated cervical cancer cells. The test is described as follows: CTG cell proliferation, cervical cancer cell lines. In kind it is cell-based. Conditions: across PIK3CA-mutated cervical cancer cell lines, 72 hours, Alpelisib: in two cell lines, read-out: half inhibitory concentration.
Excerpt: (2) Reagents • 1) FBS (fetal bovine serum) (purchased from ExCell, product number: FND500); • 2) RPMI1640 medium (purchased from Hyclone, product number: SH30809.01); • 3) McCoy's 5A medium (purchased from Gibco, product number: 12330-031); • 4) MEM medium (purchased from Hyclone, product number: SH30024.01; • 5) MEM NEAA (purchased from Gibco, product number: 11140-050); • 6) Sodium pyruvate (purchased from Gibco). […]
Step 1: Cells in exponential growth phase were harvested, and viable cells were counted with a Vi-Cell XR cytometer. […]
as §3, §4

The subject of test [3] is human breast cancer BT-474 subcutaneous xenograft tumor. The test is described as follows: In vivo efficacy, BT-474 subcutaneous xenograft tumor model. More on the design: species or system BALB/c nude mice. The conditions noted are these: oral, once a day for 20 days; for Tumor volume (Day 20): Mean ± SEM; for T/C / TGI: day 20, vs Solvent 2. How it is done:
Experimental purpose: Study the in vivo efficacy of the test drug on human breast cancer BT-474 subcutaneous xenograft tumor BALB/c nude mouse model.
(1) Cell culture: human breast cancer BT-474 cells were monolayer cultured in vitro. The culture conditions were that 10% fetal bovine serum, 100 U/ml penicillin (purchased from Gibco) and 100 μg/ml chain Mycin (purchased from Gibco) were added to Hybri-Care medium, and cultured at 37° C. and 5% CO2. Routine digestion and passage were performed with trypsin-EDTA (purchased from Gibco, product number: 25200-072) twice a week. When the cell saturation was 80%-90%, the cells are harvested, counted and inoculated.
(2) Animals: BALB/c nude mice, female, 6 weeks old, weighing 16-18 grams. Provided by Shanghai Sippe-Bk Lab Animal Co., Ltd.
(3) Control article: • Both PF05212384 and Everolimus were purchased from Shanghai TOPSCIENCE Biochemical Technology Co., Ltd.
(4) Tumor inoculation: 0.2 ml (1×10^7) BT-474 cells (matrigel was added, volume 1:1) were subcutaneously inoculated on the right back of each mouse, and the mice were divided into groups and administered with drugs when the average tumor volume reached 122 mm^3. See Table 10 below for the experimental grouping and dosing regimen.

Test [4] relates to T47D PIK3CA-mutated breast cancer cell line. Briefly: CTG cell proliferation, T47D. It is filed as cell-based. Conditions: 72 hours, read-out: Absolute IC50.
Excerpt: (2) Reagents • 1) FBS (fetal bovine serum) (purchased from ExCell, product number: FND500); • 2) DMEM medium (purchased from Gibco, product number: C11995500BT); • 3) Insulin (purchased from Gibco, product number: EPX010-12003-901); • 4) RPMI1640 medium (purchased from Hyclone, product number: SH30809.01); • 5) MEM medium (purchased from Hyclone, product number: SH30024.01). (3) Test Article and Positive Control Article • Test article: compound I; • Positive control article: Cisplatin, Molecular weight: 300.05; Solvent: PBS (phosphate buffer saline); Storage condition: 2-8° C.; Supplier: Qilu Pharmaceutical. (4) The CTG Method was Used to Determine the Cell Proliferation IC50 of the Compound.
Step 1: Cells in exponential growth phase were harvested, and viable cells were counted with a Vi-Cell XR cytometer. The cell suspension was adjusted to an appropriate concentration with medium. 90 μL of cell suspension was added to each well of a 96-well cell culture plate, and the final cell concentration was 1500-6000 cells/well.
Step 2: The initial concentration of administration of compound I was 3 μM, and the initial concentration of administration of the control drug Cisplatin was 100 μM, and serially diluted 3-fold, a total of 9 concentration gradients and a DMSO control, the final concentration of DMSO in each well was 0.1%, placed in a 37° C., 5% CO2 incubator for 72 hours.
as §3, §4

Test [5] relates to Ca Ski PIK3CA-mutated cervical cancer cell line. The test is described as follows: CTG cell proliferation, Ca Ski. It is filed as cell-based. Conditions: Homo sapiens, 72 hours, read-out: Absolute IC50.
Excerpt: as §1, §2, §3, §4

pIC50: −log10 of the molar value. Like-named read-outs stand apart in the source and are kept apart here.

For the compound `COCCOc1cnc2ccc(-c3cnc(OC)c(NS(=O)(=O)c4sc(C)nc4C)c3)cn2c1=O` [Compound I], the pIC50 is 6.74 in test [1]; 6.74 to 7.82 in test [2]; greater than 6.00 in test [4] (listed as compound I); 7.77 in test [4]; 7.41 in test [5]. Further, the “Tumor volume (Day 20)” value in test [3] (0.05 mg/kg) worked out at 194 ± 49 mm^3; in test [3] (0.1 mg/kg), 94 ± 12 mm^3; in test [3] (0.3 mg/kg), 68 ± 8 mm^3. Further, the T/C is listed as 44% in test [3] (0.05 mg/kg), 23% in test [3] (0.1 mg/kg) and 16% in test [3] (0.3 mg/kg). Also, the TGI is listed as 77% in test [3] (0.05 mg/kg), 109% in test [3] (0.1 mg/kg) and 118% in test [3] (0.3 mg/kg).
